Test results published in US20230295181A1, “INHIBITOR OF APOPTOSIS (IAP) PROTEIN ANTAGONISTS” (Sanford Burnham Prebys Medical Discovery Institute, priority 2020, published 2023).
Counter-ions that a name gives are not always drawn.

Experiments:
OVCAR-4 = test: Cell viability (CellTiterGlo), OVCAR-4; format: cell-based; conditions: Homo sapiens
Method: (§1) Candidate compounds are tested in 384-well plates for effects on cell viability in the presence or absence of an appropriate conventional anticancer drug. Cell viability is indirectly monitored in the first instance using CellTiterGlo (Promega Corp., Madison, WI) (Table D). To determine if cell death is apoptotic, the induction of caspase activity is assessed utilizing the CaspaseGlo Assay system (Promega Corp., Madison, WI) (Table E). Cell viability is monitored 1 to 3 days after addition of compounds and conventional drugs. […] A compound of any of the formulae as disclosed herein is evaluated in combination with said anticancer drug to determine which ML-IAP antagonist can sensitize most efficaciously. Select candidate compounds are tested in 14 point drug dose response (DDR) curves in a 384-well format in order to establish potency in combination with decreasing concentrations of lung cancer relevant drug regimens. Furthermore, checker-board titrations of a conventional drug and the candidate molecules are performed to search for synergy (using ISOBOLOGRAM analysis). Compounds and combinations as described herein are also tested for cytotoxicity against normal human cells (e.g. primary fibroblasts, lymphocytes, hepatocytes, epithelial and endothelial cells) using known methods.
(§2) Cell viability was evaluated following treatment with a compound as disclosed in Table D. Viability of cancer cells following treatment is indicated according to the following legend: […]

Caspase 3/7 (SKOV-3) = test: Induction of caspase 3/7 activity (CaspaseGlo), SKOV-3; format: cell-based; conditions: Homo sapiens, SK-OV-3
Method: as §1
(§3) The induction of caspase activities was tested with a compound as disclosed in Table E. The activities are indicated according to the following legend: […]

Caspase 9 (SKOV-3) = test: Induction of caspase 9 activity (CaspaseGlo), SKOV-3; format: cell-based; conditions: Homo sapiens, SK-OV-3
Method: as §1, §3

Caspase 3/7 (OVCAR-4) = test: Induction of caspase 3/7 activity (CaspaseGlo), OVCAR-4; format: cell-based; conditions: Homo sapiens
Method: as §1, §3

[1] = In vivo PK plasma exposure in mice
Method: Pharmacokinetic (PK) studies are performed in vivo in mice for compounds as described herein. Standard formulations are evaluated, including hydroxypropyl methylcellulose, carboxymethylcellulose, and polyethylene glycol. For intravenous studies, compounds are administered via indwelling catheters in jugular vein and samples collected from the carotid artery. These experiments provide basic pharmacokinetic parameters including peak plasma concentration (Cmax), bioavailability (% F), exposure (AUC), half-life (t½), clearance (CL), volume of distribution (Vd), and brain levels. To measure bioavailability, a compound as described herein is administered to three animals/group, both orally (10 mg/kg) and intravenously (1 mg/kg). Intraperitoneally administration is also assessed in order to determine both brain and plasma levels of compounds.
The compounds described herein were tested in vivo in mice to measure PK plasma exposure as shown in Table F. The PK plasma values are indicated according to the following legend: […]

SKOV-3 cancer cell lines = test: SKOV-3 cell viability after treatment with 10 μM test compound; format: cell-based; conditions: for viability at 10 µM: Homo sapiens, SK-OV-3, 10 micromolar test compound, SKOV-3 cells; for % viability after treatment with 10 micromolar of test compound (SKOV-3 cells): 10 micromolar test compound, hydrochloride
Method: SKOV-3 cancer cell lines were treated with a test compound, either as a pure enantiomer or a mixture of stereoisomers, at a concentration of 10 μM. Cell viability was evaluated following treatment with a compound as disclosed in Table B. Viability of cancer cells following treatment is indicated according to the following legend:
A=0-25% viability B=26-50% viability C=>50% viability

SKOV-3 = test: Cell viability (CellTiterGlo), SKOV-3; format: cell-based; conditions: Homo sapiens, SK-OV-3
Method: as §1, §2

H460 lung cancer cells = test: Sensitization of lung cancer cells to standard of care treatment (vinorelbine); format: cell-based; conditions: combination with vinorelbine, FIG. 1
Method: In order to assess the role of ML-IAP antagonists in cancer treatment, H460 lung cancer cells are treated with a standard of care treatment (e.g., vinorelbine) alone or in combination with a selective ML-IAP antagonist. […] The leftward shift in the dose dependent response (DDR) curve indicates a resensitization of lung cancer cells to the anti-cancer agent. Furthermore, TNF induction is absent following treatment with a compound described herein in breast cancer MDA-MB-231 cells. This effect provides a substantial advantage clinically as it avoids an inappropriate inflammatory response.

XIAP-BIR3 = XIAP-BIR3 (Homo sapiens (Human), UniProt P98170); test: Fluorescence polarization (FP) assay, inhibition of SMAC peptide binding
XIAP-BIR3, sequence (P98170 241-356): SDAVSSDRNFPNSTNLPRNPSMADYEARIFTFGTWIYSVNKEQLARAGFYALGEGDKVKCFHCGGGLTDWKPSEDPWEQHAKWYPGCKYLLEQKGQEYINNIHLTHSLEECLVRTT
Method: Compounds of the present disclosure were evaluated for potency and selectivity in a fluorescence polarization (FP) assay that measures inhibition of SMAC peptide binding to ML-IAP. To measure SMAC peptide binding, multi-well plate format FP assays based on the ability of SMAC peptides to bind the BIR domains of several IAPs are used to generate IC50 and Ki values for analogues. The FP assays utilize plasmid constructs encoding various full length IAPs or fragments for expression as either GST or His6-fusion proteins in bacteria. Compounds are evaluated for activity against several members of the IAP family, including the BIR domains of XIAP, cIAP1 and cIAP2 in order to generate selectivity profiles of the compounds disclosed herein. These assays also enable the identification and characterization of potency profiles of ML-IAP binding.
Activity of the compounds are indicated according to the following legend: […]

Row | SMILES | IC50 (OVCAR-4) [nM] | EC50 (Caspase 3/7 (SKOV-3)) [nM] | EC50 (Caspase 9 (SKOV-3)) [nM] | EC50 (Caspase 3/7 (OVCAR-4)) [nM] | PK plasma exposure at 1 h (IP, 10 mg/kg) [1] | viability at 10 µM (SKOV-3 cancer cell lines) [%] | IC50 (SKOV-3) [nM] | sensitizing effect on lung cancer cells (H460 lung cancer cells) | Ki (XIAP-BIR3) [nM] | % viability after treatment with 10 micromolar of test compound (SKOV-3 cells) (SKOV-3 cancer cell lines)
1 | CC[C@H](NC)C(=O)N[C@H]1CCS[C@H]2CC(C)(C)[C@@H](C(=O)N[C@@H]3CCCc4ccccc43)N2C1=O.Cl [Compound 79, (4S,7S,9aS)-8,8-dimethyl-4-((S)-2-(methylamino)butanamido)-5-oxo-N—((R)-1,2,3,4-tetrahydronaphthalen-1-yl)octahydropyrrolo[2,1-b][1,3]thiazepine-7-carboxamide hydrochloride] | 10 to 100 | 1 to 10 | 1 to 10 | 1 to 10 | iii (iii=500-1000 nM) | 0 to 25 | 1 to 10 |  |  | 
2 | CN[C@@H](C)C(=O)N[C@H]1CCS[C@H]2CC(C)(C)C(C(=O)N[C@@H]3CCCc4ccccc43)N2C1=O (stereo partly drawn) [Compound A, (4S,9aS)-8,8-dimethyl-4-((S)-2-(methylamino)propanamido)-5-oxo-N—((R)-1,2,3,4-tetrahydronaphthalen-1-yl)octahydropyrrolo[2,1-b][1,3]thiazepine-7-carboxamide hydrochloride] | 1 to 10 | 1 to 10 | < 1 | 1 to 10 | iii (iii=500-1000 nM) |  | 1 to 10 | sensitizing effect | 10 to 100 | 
3 | CN[C@@H](C)C(=O)N[C@H]1CCOC2CC3(CCCC3)C(C(=O)N[C@@H]3CCCc4ccccc43)N2C1=O (stereo partly drawn) [Compound 82, (4'S)-4′-((S)-2-(methylamino)propanamido)-5′-oxo-N—((R)-1,2,3,4-tetrahydronaphthalen-1-yl)hexahydro-7′H-spiro[cyclopentane-1,8′-pyrrolo[2,1-b][1,3]oxazepine]-7′-carboxamide hydrochloride] | 1 to 10 | 1 to 10 | 1 to 10 | 1 to 10 | iv (iv=>1000 nM) | 0 to 25 | 1 to 10 |  | 10 to 100 | 
4 | CN[C@@H](C)C(=O)N[C@@H]1C(=O)N2[C@H](CC(C)(C)[C@H]2C(=O)N[C@@H]2CCCc3ccccc32)OC2CCCCC21 (single isomer, unassigned) [Compound 65, hydrochloride] | 10 to 100 | 1 to 10 | 1 to 10 | 1 to 10 | iii (iii=500-1000 nM) | 0 to 25 | 10 to 100 |  | 10 to 100 | 
5 | CCC1(CC)C[C@@H]2SCC[C@H](NC(=O)[C@H](C)NC)C(=O)N2C1C(=O)N[C@@H]1CCCc2ccccc21 (mixture of isomers) [Compound 38, (4S,9aS)-8,8-diethyl-4-((S)-2-(methylamino)propanamido)-5-oxo-N—((R)-1,2,3,4-tetrahydronaphthalen-1-yl)octahydropyrrolo[2,1-b][1,3]thiazepine-7-carboxamide hydrochloride] | 10 to 100 | 1 to 10 | 1 to 10 | 1 to 10 | iii (iii=500-1000 nM) |  | 10 to 100 |  | > 100 | A (A=0-25% viability)
6 | CN[C@@H](C)C(=O)N[C@H]1Cc2ccc(OC)cc2[C@H]2CC(C)(C)[C@@H](C(=O)N[C@@H]3CCCc4ccccc43)N2C1=O [Compound 11, (6S,11bR)-10-methoxy-2,2-dimethyl-6-((S)-2-(methylamino)propanamido)-5-oxo-N—((R)-1,2,3,4-tetrahydronaphthalen-1-yl)-2,3,5,6,7,11b-hexahydro-1H-benzo[c]pyrrolo[1,2-a]azepine-3-carboxamide hydrochloride] | > 1000 |  |  |  |  | 26 to 50 | > 1000 |  |  | 
7 | CCC1(CC)C[C@@H]2OCC[C@H](NC(=O)[C@H](C)NC)C(=O)N2[C@@H]1C(=O)N[C@@H]1CCCc2ccccc21 [Compound 21, (4S)-8,8-diethyl-4-((S)-2-(methylamino)propanamido)-5-oxo-N—((R)-1,2,3,4-tetrahydronaphthalen-1-yl)octahydropyrrolo[2,1-b][1,3]oxazepine-7-carboxamide hydrochloride] | 100 to 1000 |  |  |  |  | 0 to 25 | 10 to 100 |  |  | 
8 | CN[C@@H](C)C(=O)N[C@H]1CCS[C@H]2CC3(CCCC3)[C@@H](C(=O)N[C@@H]3CCCc4ccccc43)N2C1=O [Compound 80, (4'S,7'S,9a'S)-4′-((S)-2-(methylamino)propanamido)-5′-oxo-N—((R)-1,2,3,4-tetrahydronaphthalen-1-yl)hexahydro-7′H-spiro[cyclopentane-1,8′-pyrrolo[2,1-b][1,3]thiazepine]-7′-carboxamide hydrochloride] | 1 to 10 | < 1 | < 1 | < 1 | iii (iii=500-1000 nM) | 0 to 25 | < 1 |  | 10 to 100 | 
9 | CN[C@@H](C)C(=O)N[C@H]1CCOC2CC3(CC=CC3)C(C(=O)N[C@@H]3CCCc4ccccc43)N2C1=O (stereo partly drawn) [Compound 81, (4'S)-4′-((S)-2-(methylamino)propanamido)-5′-oxo-N—((R)-1,2,3,4-tetrahydronaphthalen-1-yl)-2′,3′,4′,5′,9′,9a′-hexahydro-7′H-spiro[cyclopentane-1,8′-pyrrolo[2,1-b][1,3]oxazepin]-3-ene-7′-carboxamide hydrochloride] | 10 to 100 | 1 to 10 | 1 to 10 | 1 to 10 | iii (iii=500-1000 nM) | 0 to 25 | 1 to 10 |  | 10 to 100 | 
10 | CN[C@@H](C)C(=O)N[C@H]1CCO[C@H]2CC(C)(C)[C@@H](C(=O)NCCC(C)C)N2C1=O [Compound 70, (4S,7S,9aS)—N-isopentyl-8,8-dimethyl-4-((S)-2-(methylamino)propanamido)-5-oxooctahydropyrrolo[2,1-b][1,3]oxazepine-7-carboxamide hydrochloride] | > 1000 |  |  |  |  | > 50 | > 1000 |  |  | 
11 | CN[C@@H](C)C(=O)N[C@H]1CCS[C@H]2CC(C(C)C)(C(C)C)[C@@H](C(=O)N[C@@H]3CCCc4ccccc43)N2C1=O [Compound 41, 4S,9aS)-8,8-diisopropyl-4-((S)-2-(methylamino)propanamido)-5-oxo-N—((R)-1,2,3,4-tetrahydronaphthalen-1-yl)octahydropyrrolo[2,1-b][1,3]thiazepine-7-carboxamide hydrochloride] | > 1000 |  |  |  |  |  | > 1000 |  |  | A (A=0-25% viability)
12 | CN[C@@H](C)C(=O)N[C@H]1CCO[C@H]2CC(C)(C)[C@@H](C(=O)N[C@@H]3CCOc4ccccc43)N2C1=O [Compound 74, (4S,7S,9aS)—N—((R)-chroman-4-yl)-8,8-dimethyl-4-((S)-2-(methylamino)propanamido)-5-oxooctahydropyrrolo[2,1-b][1,3]oxazepine-7-carboxamide hydrochloride] | 100 to 1000 |  |  |  |  | 0 to 25 | 10 to 100 |  |  | 
